Laboratory results from patent US20260224588A1, “BENZODIAZEPINONE-DERIVED INHIBITORS OF EGFR AND HER2” (The Research Foundation for the State University of New York, priority 2023, published 2026).
“Also recorded” adds a separate entry of the source. Like-named read-outs stand apart in the source and are kept apart here.

How the values were obtained:
EGFR L858R kinase domain = molecular target: T1, EGFR L858R kinase domain (Homo sapiens, UniProt P00533, L858R); assay: HTRF-based activity assay; format: biochemical
T1 construct: The EGFR kinase domain (residues 696-1022) was cloned into pTriEx; 6xHis (N, cleaved yes); GST (N, cleaved yes); made in house; host or cells: SF9 insect cells (baculovirus)
Protocol: (§1) Protein expression and purification. The EGFR kinase domain (residues 696-1022) was cloned into pTriEx with an N-terminal 6×His-glutathione S-transferase (GST) fusion tag followed by a TEV protease cleavage site. EGFR WT, L858R, L858R/T790M, L858R/T790M/C797S was expressed after baculoviral infection in SF9 cells and EGFR(T790M/V948R) was expressed in SF21 cells. Briefly, cells were pelleted and resuspended in lysis buffer composed of 50 mM Tris pH 8.0, 500 mM NaCl, 1 mM tris(2-carboxyethyl)phosphine (TCEP), and 5% glycerol. Cells were lysed via sonication prior to ultracentrifugation at >200,000 g for 1 h. Imidazole pH 8.0 was added to the supernatant for a final concentration of 40 mM and flowed through a column containing Ni-NTA agarose beads. The resin was washed with lysis buffer supplemented with 40 mM imidazole and eluted with lysis buffer containing 200 mM imidazole. Eluted EGFR kinase domain was dialyzed overnight in the presence of 5% (w/w) TEV protease against dialysis buffer containing 50 mM Tris pH 8.0, 500 mM NaCl, 1 mM TCEP, and 5% glycerol. The cleaved protein was passed through Ni-NTA resin to remove the 6×His-GST fusion protein and TEV prior to size exclusion chromatography on a prep-grade Superdex S200 column in 50 mM Tris pH 8.0, 500 mM NaCl, 1 mM TCEP, and 5% glycerol.
(§2) HTRF Assays. Biochemical assays for EGFR domains were carried out using a homogeneous time-resolved fluorescence (HTRF) KinEASE-TK (Cisbio) assay, as described previously. Assays were optimized for ATP concentration of 100 μM with enzyme concentrations WT EGFR 10 nM, L858R 0.1 nM, L858R/T790M at 0.02 nM and L858R/T790M/C797S at 0.02 nM. Inhibitor compounds in DMSO were dispensed directly in 384-well plates with the D300 digital dispenser (Hewlett Packard) followed immediately by the addition of aqueous buffered solutions using the Multidrop Combi Reagent Dispenser (Thermo Fischer). […] The curves were fitted using a non-linear regression model with a sigmoidal dose response.

[1] = molecular target: T2, EGFR L858R/T790M/C797S kinase domain (Homo sapiens, UniProt P00533, C797S/L858R/T790M); assay: HTRF-based activity assay; format: biochemical
T2 construct: The EGFR kinase domain (residues 696-1022) was cloned into pTriEx; 6xHis (N, cleaved yes); GST (N, cleaved yes); made in house; host or cells: SF9 insect cells (baculovirus)
Protocol: as §1, §2

[2] = molecular target: T3, EGFR L858R/T790M kinase domain (Homo sapiens, UniProt P00533, L858R/T790M); assay: HTRF-based activity assay; format: biochemical
T3 construct: The EGFR kinase domain (residues 696-1022) was cloned into pTriEx; 6xHis (N, cleaved yes); GST (N, cleaved yes); made in house; host or cells: SF9 insect cells (baculovirus)
Protocol: as §1, §2

WT EGFR kinase domain = molecular target: T4, WT EGFR kinase domain (Homo sapiens, UniProt P00533); assay: HTRF-based activity assay; format: biochemical
T4 construct: The EGFR kinase domain (residues 696-1022) was cloned into pTriEx; 6xHis (N, cleaved yes); GST (N, cleaved yes); made in house; host or cells: SF9 insect cells (baculovirus)
Protocol: as §1, §2

[3] = system: EGFR (L858R/T790M) in H1975 lung cancer cells; assay: Western blotting of EGFR, ERK1/2 and AKT phosphorylation; format: cell-based, human; details: 6 hours treatment
Protocol: FIG. 2. […] All experiments performed after 6 hours treatments of inhibitors or DMSO controls and Western blots are representative of at least three independent experiments.
Western blotting. Cells were collected and lysed with lysis buffer (5M NaCl, 1M TRIS pH 8.0, 10% SDS, 10% Triton X-100 and a tablet of protease inhibitors) and processed for Western blotting analysis. Primary antibodies used; phospho-EGFR (Tyr1068; #2234, 1:1,000), EGFR (#4267; 1:1,000), phospho-AKT (Ser473; #4060, 1:1,000), AKT (#9272, 1:1,000), phospho-ERK1/2 (Thr202/Tyr204; #4370, 1:1,000), and ERK1/2 (#4695, 1:1,000) antibodies; were purchased from Cell Signaling Technology. Secondary Goat anti-rabbit IgG starbright blue 700 and Anti-tubulin hFAB Rhodamine Tubulin were purchased from Bio-rad.

[4] = system: L858R EGFR mutant Ba/F3 cells; details: cited from earlier work
[5] = system: wildtype HER2 Ba/F3 cells; details: from Heppner et al. 2022, read-out: Anti-proliferative EC50 ± SE, HER2; cited from earlier work
[6] = system: wildtype EGFR Ba/F3 cells; details: from literature (footnotes a, c), read-out: Anti-proliferative EC50 ± SE, wt; cited from earlier work
[7] = system: L858R/T790M EGFR mutant Ba/F3 cells; details: from literature (footnotes a, c), read-out: Anti-proliferative EC50 ± SE, LR/TM; cited from earlier work
[8] = 100 μM ATP, enzyme 0.1 nM, read-out: Biochemical EGFR IC50, LR
[9] = 100 μM ATP, enzyme 0.02 nM, read-out: Biochemical EGFR IC50, LRTMCS
[10] = 100 μM ATP, enzyme 0.02 nM, read-out: Biochemical EGFR IC50, LRTM
[11] = from literature (footnotes a, c), read-out: Anti-proliferative EC50 ± SE, LR

T2 sequence (P00533 696-1022 T790M/C797S/L858R): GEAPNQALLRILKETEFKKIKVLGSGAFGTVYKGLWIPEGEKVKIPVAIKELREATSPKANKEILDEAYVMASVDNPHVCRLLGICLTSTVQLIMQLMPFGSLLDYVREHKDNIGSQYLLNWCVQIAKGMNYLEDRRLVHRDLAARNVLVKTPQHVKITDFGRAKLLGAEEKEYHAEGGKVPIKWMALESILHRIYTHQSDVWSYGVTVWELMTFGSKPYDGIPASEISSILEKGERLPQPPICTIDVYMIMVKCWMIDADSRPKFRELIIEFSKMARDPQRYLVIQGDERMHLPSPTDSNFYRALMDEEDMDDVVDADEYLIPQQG
T1 sequence (P00533 696-1022 L858R): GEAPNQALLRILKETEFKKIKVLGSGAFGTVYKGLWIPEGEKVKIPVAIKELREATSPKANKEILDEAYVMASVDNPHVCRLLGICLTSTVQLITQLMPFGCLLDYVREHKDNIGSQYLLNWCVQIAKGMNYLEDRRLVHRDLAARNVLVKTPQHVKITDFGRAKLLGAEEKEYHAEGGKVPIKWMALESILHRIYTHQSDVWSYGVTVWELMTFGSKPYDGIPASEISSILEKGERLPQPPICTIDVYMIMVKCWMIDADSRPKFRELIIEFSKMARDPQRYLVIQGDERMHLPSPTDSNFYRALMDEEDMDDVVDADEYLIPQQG
T3 sequence (P00533 696-1022 T790M/L858R): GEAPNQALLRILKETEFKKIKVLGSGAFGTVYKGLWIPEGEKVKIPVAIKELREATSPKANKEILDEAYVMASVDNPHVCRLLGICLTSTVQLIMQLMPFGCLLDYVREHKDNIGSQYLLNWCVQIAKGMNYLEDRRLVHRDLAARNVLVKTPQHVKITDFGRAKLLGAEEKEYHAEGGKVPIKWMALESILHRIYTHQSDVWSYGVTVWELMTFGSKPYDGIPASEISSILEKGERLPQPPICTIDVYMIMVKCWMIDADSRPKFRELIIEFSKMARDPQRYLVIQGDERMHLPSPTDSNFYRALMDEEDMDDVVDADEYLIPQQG
T4 sequence (P00533 696-1022): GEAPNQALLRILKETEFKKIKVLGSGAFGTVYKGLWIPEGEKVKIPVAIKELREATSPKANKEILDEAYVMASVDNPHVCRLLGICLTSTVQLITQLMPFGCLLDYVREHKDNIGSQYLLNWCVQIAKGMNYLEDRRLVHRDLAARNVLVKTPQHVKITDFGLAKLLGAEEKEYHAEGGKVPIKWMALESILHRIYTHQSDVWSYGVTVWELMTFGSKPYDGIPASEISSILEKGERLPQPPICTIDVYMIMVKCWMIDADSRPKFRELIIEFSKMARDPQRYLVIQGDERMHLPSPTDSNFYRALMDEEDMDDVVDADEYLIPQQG

Compound	IC50 (EGFR L858R kinase domain; [8])	IC50 [1, 9]	IC50 [2, 10]	EC50 [4, 11]	further results
CSc1nc(-c2cccc(CN3C(=O)c4ccccc4Nc4ccc(F)cc43)c2)c(-c2ccnc(NC(C)=O)c2)[nH]1 [Compound 1, N-(4-(4-(3-((8-Fluoro-11-oxo-5,11-dihydro-10H-dibenzo[b,e][1,4]diazepin-10-yl)methyl)phenyl)-2-(methylthio)-1H-imidazol-5-yl)pyridin-2-yl) acetamide]	1300 ± 100 nM				IC50 (EGFR L858R kinase domain; read-out: IC50 values, LR): > 1000 nM; IC50 ([1]; read-out: IC50 values, LRTMCS): > 1000 nM; IC50 ([2]; read-out: IC50 values, LRTM): > 1000 nM; IC50 (WT EGFR kinase domain; read-out: IC50 values, WT EGFR): > 1000 nM
CSc1nc(-c2cccc(NC(=O)c3cccc4c3NC(=O)c3ccccc3N4)c2)c(-c2ccnc(NC(C)=O)c2)[nH]1 [Compound 2, N-(3-(5-(2-Acetamidopyridin-4-yl)-2-(methylthio)-1H-imidazol-4-yl)phenyl)-11-oxo-10,11-dihydro-5H-dibenzo[b,e][1,4]diazepine-9-carboxamide]	1.5 ± 0.1 nM	0.064 ± 0.004 nM	0.059 ± 0.005 nM		EGFR, ERK1/2 and AKT phosphorylation (Western blot) [3]: less effective; also recorded: suppresses EGFR phosphorylation
CCc1nc(-c2cccc(NC(=O)c3cccc4c3NC(=O)c3ccccc3N4)c2)c(-c2ccnc(NC(C)=O)c2)[nH]1 [Compound 3, N-(3-(5-(2-Acetamidopyridin-4-yl)-2-ethyl-1H-imidazol-4-yl)phenyl)-11-oxo-10,11-dihydro-5H-dibenzo[b,e][1,4]diazepine-9-carboxamide]	1.2 ± 0.09 nM	0.063 ± 0.005 nM	0.051 ± 0.005 nM		
CCc1nc(-c2cccc(NC(=O)c3cccc4c3NC(=O)c3ccccc3N4)c2)c(-c2ccnc(Nc3ccccc3)c2)[nH]1 [Compound 5, N-(3-(2-ethyl-5-(2-(phenylamino)pyridin-4-yl)-1H-imidazol-4-yl)phenyl)-11-oxo-10,11-dihydro-5H-dibenzo[b,e][1,4]diazepine-9-carboxamide]	1.1 ± 0.2 nM	1 ± 0.1 nM	0.87 ± 0.09 nM		IC50 (WT EGFR kinase domain; 100 μM ATP, enzyme 10 nM, read-out: Biochemical EGFR IC50, wt): < 10 nM
O=C1c2ccccc2Nc2ccc(F)cc2N1Cc1ccccc1 [DDC4002]				> 10000 nM	EC50 ([4]; experiments that include cetuximab, from De Clercq and Heppner et al. 2019, read-out: Anti-proliferative EC50 ± SE, LR): > 10000 nM
C=CC(=O)Nc1cc(Nc2nccc(-c3cn(C)c4ccccc34)n2)c(OC)cc1N(C)CCN(C)C [Osimertinib]				3.3 ± 0.6 nM	EC50 [5]: 34 ± 8 nM; EC50 [6]: 110 ± 40 nM; EC50 [7]: 8 nM
